# From US20060141077A1, “Pest controlling composition and the use thereof” (ORGANOX AB, priority 2002, published 2006)
# Legend:
# Rhopalosiphum padi [1] = assay: Olfactometer response to odour of barley plants exposed to chemicals; format: in vivo; conditions: treated plant vs untreated plant
# Text: Exposure of barley plants to volatile chemicals was done in perspex ‘two-chamber cages’ (Pettersson et al. 1999) attached to a vacuum tank. Air was taken into the first chamber through a hole in the cage wall, passed into the second chamber and was then drawn out from the top of this cage to a vacuum tank before being vented outside the room. Plants were placed in the second chamber, and chemicals were released from microcapillary tubing which hung in the first chamber. Plants were exposed for 5 days, after which time they were removed and used in tests of aphid behaviour. Control plants grew in identical cages with empty microcapillary tubes. Responses of R. padi migrants to chemical odours were tested in a 4-way olfactometer (Pettersson, 1970), consisting of an enclosed Perspex arena (12 cm diameter) with a central chamber and four side arms. Air was drawn from the centre of the olfactometer using a water pump, establishing distinct airflow in the side arms. An odour field was established by introducing a chemical (released from a […] capillary tube, or a whole menthol crystal, weight: 0.14 g) into one of the side arms. A single adult apterous aphid was introduced into the olfactometer, and its position was recorded every 3 minutes for 30 minutes. The number of visits to the treatment arm was compared with the mean number of visits to the control arms using a paired t-test. […]
# Rhopalosiphum padi [2] = assay: 4-way olfactometer, direct response to chemical odour; format: in vivo; conditions: R. padi; visits to treatment arm vs control arms
# Protocol: (§1) Responses of R. padi migrants to chemical odours were tested in a 4-way olfactometer (Pettersson, 1970), consisting of an enclosed Perspex arena (12 cm diameter) with a central chamber and four side arms. Air was drawn from the centre of the olfactometer using a water pump, establishing distinct airflow in the side arms. An odour field was established by introducing a chemical (released from a […] capillary tube, or a whole menthol crystal, weight: 0.14 g) into one of the side arms. A single adult apterous aphid was introduced into the olfactometer, and its position was recorded every 3 minutes for 30 minutes. The number of visits to the treatment arm was compared with the mean number of visits to the control arms using a paired t-test. Experiments were repeated 16-20 times (no. individual aphids tested), with the olfactometer turned through 90° between replicates to avoid positional bias. Olfactory responses to plants exposed to chemicals were done in a similar way, except that the odour sources consisted of whole plants enclosed in two-chamber cages attached directly to the olfactometer. In each olfactometer, one treated plant was compared with one untreated plant.
# aphids [3] = assay: Test of aphid settling on exposed barley plants; format: in vivo; conditions: barley exposed for 3, 4 and 6 days; FIG. 3
# Text: Exposure of barley plants to volatile chemicals was done in perspex ‘two-chamber cages’ (Pettersson et al. 1999) attached to a vacuum tank. Air was taken into the first chamber through a hole in the cage wall, passed into the second chamber and was then drawn out from the top of this cage to a vacuum tank before being vented outside the room. Plants were placed in the second chamber, and chemicals were released from microcapillary tubing which hung in the first chamber. […] Control plants grew in identical cages with empty microcapillary tubes. A 50 ml polystyrene tube was placed over the youngest fully developed leaf. The upper end of the tube was covered with a net and the lower end with a foam plastic plug with a slit for the leaf. To minimise mechanical damage to the test plant, a stick was used to support the tube. Ten mixed-instar apterous aphids were placed in the tube and after 2 hours the number of aphids settled (not walking) on the leaf was recorded. Occasionally aphids were able to escape from the tubes, but the results were expressed as a proportion of the number of aphids originally introduced, in case the propensity of an aphid to escape from the tube was influenced by the experimental treatment of the plant. The number of replicates (tubes) varied between experiments, but there were always equal numbers of control and treatment plants. […]
# Cavariella aegopodi = assay: 4-way olfactometer, direct response to chemical odour; format: in vivo; conditions: FIG. 1
# several aphid species = assay: Repellency to aphids (conclusions); format: in vivo; conditions: conclusion statement
# Protocol: as §1
# Aphis fabae = assay: 4-way olfactometer, direct response to chemical odour; format: in vivo; conditions: FIG. 1
# aphids [4] = conditions: applied by spraying in cereal plots, pilot experiment; cited from earlier work
# [5] = human adults; cited from earlier work
# [6] = orally in rabbits; cited from earlier work
# [7] = cited from earlier work
SMILES,response to odour of plants exposed to the chemical (Rhopalosiphum padi [1]),response to chemical odour in the olfactometer (Rhopalosiphum padi [2]),aphid settling on plants exposed to the substance (aphids [3]),response to chemical odour in the olfactometer (Cavariella aegopodi),repellency for several aphid species (several aphid species),response to chemical odour in the olfactometer (Aphis fabae),aphid settling in the field (aphids [4]),average lethal dose [5],LD50 [6],solubility in water [7]
"CC12CCC(CC1)C(C)(C)O2 [1,8-cineole, 1,3,3-trimethyl-2-oxabicyclo[2.2.2.]octane]",less attractive,did not respond,settled significantly less,,,,,,,
"CC1CCC(C(C)C)C(O)C1 (stereo not shown) [menthol, 5-methyl-2-(1-methylethyl)-cyclohexanol]",repelled,strongly repelled,,strongly repelled,strong repellents,strongly repelled,,,,
"COC(=O)c1ccccc1O [methyl salicylate, 2-hydroxybenzoic acid methyl ester]",,,,,strong repellents,,significantly reduced aphid settling,30 mL,2800 mg/kg,slightly soluble
